For one assay, the system named is C. albicans ATCC18804. In words: Antifungal MIC, microdilution in RPMI 1640. In kind it is cell-based, Candida albicans. The following applies: C. albicans ATCC18804, RPMI 1640, 48 h, 37 °C, peptides 128-1 µM, triplicate. As for the experimental part: The minimum inhibitory concentrations (MIC) were determined following the Clinical and Laboratory Standards Institute (CLSI) recommendations. Antibacterial and antifungal activity tests were performed using the microdilution method. For initial screening, peptides were tested against C. albicans ATCC18804, E. coli ATCC25922, and S. aureus ATCC25923. Briefly, bacterial cells in MH broth (80 μL aliquots containing 1.5 × 10^7 CFU) were incubated with synthetic peptides (serial dilution from 512 to 1 μM) dissolved in Milli-Q water. After incubation for 24 h at 37 °C, the microtiter plates were analyzed visually by addition of resazurin. For the antifungal assays, the culture medium was RPMI 1640 buffered with L-glutamine (pH 7.2), 0.165 M morpholinepropanesulfonic acid (MOPS), and 2% glucose. Cell suspensions (final concentration of 1 × 10^3–2.5 × 10^3 CFU/mL) were inoculated on a microdilution plate previously prepared with serially diluted synthetic peptides (128–1 μM). The plates were incubated for 48 h at 37 °C. Each assay was performed in triplicates. Additionally, amphotericin B and fluconazole were used as the control drugs. MIC was defined as the lowest concentration of peptide at which no growth was detected.
In general terms: Broth dilution looks for growth in wells or tubes with falling amounts of substance.

In a further assay the test system is S. aureus SA90. In kind it is cell-based, Staphylococcus aureus. Here is the method:
(§1) After confirming antibacterial activity, the peptides were tested against gram-positive and gram-negative multidrug-resistant bacteria, including strains of clinical origin. The peptides, p-BthTX-I, des-Lys^12/(p-BthTX-I)2, and Lys^13-(p-BthTX-I)2 were serially diluted (512–1 μM) in cation-adjusted BBL MH II broth (CAMHB; Becton, Dickson and Co., Sparks, MD, USA) as described by CLSI. Bacteria at 5.0 × 10^5 CFU/mL were added to the media and incubated for 24 h at 37 °C. […] Assays were performed in duplicates, and sterile broth was used as the negative control. To determine the minimal bactericidal concentration (MBC), 100 µL from each well of the MIC assay plates that inhibited bacterial growth were sub-cultured onto MH agar (MHA) plates. […] If the ratio of MBC/MIC was >4, the activity of the peptide was considered bacteriostatic, as described previously.

The test system of the next assay is S. aureus ATCC25923. In kind it is cell-based, Staphylococcus aureus. As to conditions: for MIC: S. aureus ATCC25923, CAMHB, 24 h, 37 °C, duplicate; for MBC: S. aureus ATCC25923, sub-culture on MH agar, 99.9% death. As for the experimental part: as §1
The test system of the next assay is S. aureus SA33. In kind it is cell-based, Staphylococcus aureus. As to conditions: for MBC: S. aureus SA33, sub-culture on MH agar, 99.9% death. As for the experimental part:
as §1

For the next assay, the system named is S. epidermidis ATCC35984. The assay is classed as cell-based, Staphylococcus epidermidis. As to conditions: for MIC: S. epidermidis ATCC35984, CAMHB, 24 h, 37 °C, duplicate; for MBC: S. epidermidis ATCC35984, sub-culture on MH agar, 99.9% death. As for the experimental part:
as §1

The subject of another assay is K. pneumoniae ATCC700603. In kind it is cell-based, Klebsiella pneumoniae. Here is the method:
as §1

Structures are written as SMILES. ≈ marks a conversion by molar mass, not a printed value. Bridge positions count the residues as written; N and C are the ends. Peptide text beside a SMILES is read from it. I, II: the chains in the order shown.

One may read the MIC as the smallest concentration in the dilution series that meets the test's criterion for growth inhibition. A higher MIC goes with a need for much substance. The MBC is the lowest tested concentration that kills the bacteria rather than only halting them. The low end stands for more potent killing, the high end for less potent killing. With `CC(C)C[C@H](NC(=O)[C@H](Cc1c[nH]cn1)NC(=O)[C@H](Cc1ccc(O)cc1)NC(=O)[C@H](CCCNC(=N)N)NC(=O)[C@H](Cc1ccc(O)cc1)NC(=O)[C@H](CCCCN)NC(=O)[C@@H](N)CCCCN)C(=O)N[C@@H](CCCCN)C(=O)N1CCC[C@H]1C(=O)N[C@@H](Cc1ccccc1)C(=O)N[C@@H](CSSC[C@H](NC(=O)[C@H](Cc1ccccc1)NC(=O)[C@@H]1CCCN1C(=O)[C@H](CCCCN)NC(=O)[C@H](CC(C)C)NC(=O)[C@H](Cc1c[nH]cn1)NC(=O)[C@H](Cc1ccc(O)cc1)NC(=O)[C@H](CCCNC(=N)N)NC(=O)[C@H](Cc1ccc(O)cc1)NC(=O)[C@H](CCCCN)NC(=O)[C@@H](N)CCCCN)C(=O)N[C@@H](CCCCN)C(=O)N[C@@H](CCCCN)C(=O)O)C(=O)N[C@@H](CCCCN)C(=O)N[C@@H](CCCCN)C(=O)O` [(p-BthTX-I)2], the MIC in the assay on C. albicans ATCC18804 is listed as more than 128 µM; with S. aureus SA90 (S. aureus SA90 (MRSA), CAMHB, 24 h, 37 °C), 128 µM (≈ 445 µg/mL); against S. aureus ATCC25923, 512 µM (≈ 1780 µg/mL); against S. epidermidis ATCC35984, 16 µM (≈ 55.6 µg/mL); against K. pneumoniae ATCC700603 (K. pneumoniae ATCC700603 (SHV-18), CAMHB, 24 h, 37 °C), 64 µM (≈ 222 µg/mL). Further, the MBC with S. aureus SA90 (S. aureus SA90, sub-culture on MH agar, 99.9% death) was 256 µM (≈ 890 µg/mL); with S. aureus ATCC25923, 512 µM (≈ 1780 µg/mL); in the assay with S. aureus SA33, 512 µM (≈ 1780 µg/mL); in the assay with S. epidermidis ATCC35984, 64 µM (≈ 222 µg/mL); in the assay on K. pneumoniae ATCC700603 (K. pneumoniae ATCC700603, sub-culture on MH agar, 99.9% death), 64 µM (≈ 222 µg/mL).

On to `CC(C)C[C@H](NC(=O)[C@H](Cc1c[nH]cn1)NC(=O)[C@H](Cc1ccc(O)cc1)NC(=O)[C@H](CCCNC(=N)N)NC(=O)[C@H](Cc1ccc(O)cc1)NC(=O)[C@H](CCCCN)NC(=O)[C@@H](N)CCCCN)C(=O)N[C@@H](CCCCN)C(=O)N1CCC[C@H]1C(=O)N[C@@H](Cc1ccccc1)C(=O)N[C@@H](CSSC[C@H](NC(=O)[C@H](Cc1ccccc1)NC(=O)[C@@H]1CCCN1C(=O)[C@H](CCCCN)NC(=O)[C@H](CC(C)C)NC(=O)[C@H](Cc1c[nH]cn1)NC(=O)[C@H](Cc1ccc(O)cc1)NC(=O)[C@H](CCCNC(=N)N)NC(=O)[C@H](Cc1ccc(O)cc1)NC(=O)[C@H](CCCCN)NC(=O)[C@@H](N)CCCCN)C(=O)O)C(=O)O` [des-Lys^12/Lys^13-(p-BthTX-I)2] (I: H-KKYRYHLKPFC-OH / II: H-KKYRYHLKPFC-OH; disulfide I:11-II:11), for which the minimal inhibitory concentration (MIC) is listed as more than 128 µM against C. albicans ATCC18804; 128 µM (≈ 379 µg/mL) against S. aureus ATCC25923; 128 µM (≈ 379 µg/mL) against S. aureus SA33 (S. aureus SA33 (MRSA, tigecycline resistant), CAMHB, 24 h, 37 °C); 32 µM (≈ 94.8 µg/mL) in the assay with S. epidermidis ATCC35984. For the same compound, the minimal bactericidal concentration (MBC) worked out at 256 µM (≈ 759 µg/mL) with S. aureus ATCC25923, 256 µM (≈ 759 µg/mL) with S. aureus SA33 and 32 µM (≈ 94.8 µg/mL) with S. epidermidis ATCC35984.

(Values after article PMC6150245 (Molecules : A Journal of Synthetic Chemistry and Natural …, 2017).)
